The subject of this test is basilar (cerebral) arteries. Briefly: Contractile effects on basilar arteries (suppression of adenosine-induced relaxation of isolated cerebral artery rings). Further details: species or system Dogs. Conditions: isolated dog basilar artery rings relaxed with adenosine; test compound added cumulatively; in comparison with the Vehicle group. The text has this: Dogs were anesthetized by intravenous injection of sodium pentobarbital, after which they were euthanized by exsanguination and subjected to craniotomy.
The basilar (cerebral) arteries were removed and cut into rings segments of about 2 mm in width. Each ring segment was fixed with a silk thread to a needle cut into about 2 mm in length. The needle was attached to a holder provided in an Easy-Magnus System (Model no. UC-2; IWASHIYA KISHIMOTO MEDICAL INSTRUMENTS); the ring segments were immersed in a nutritive solution and allowed to stabilize at a resting tension of 0.2 g (1.96 mN) for more than 60 minutes. Into the organ bath (2 mL) of the Easy-Magnus System, the cerebral artery was relaxed by application of 2 μL of 10 mmol/L adenosine aqueous solution. After that, the test compound was added cumulatively; 1 μL of 0.2 mmol/L dimethylsulfoxide solution, 1 μL of 0.4 mmol/L dimethylsulfoxide solution, and 0.7 μL of 2 mmol/L dimethylsulfoxide solution in order (Test compound-added group). Separately, in the same manner as in the Test compound-added group, dimethylsulfoxide alone was cumulatively added in place of the test compound (Vehicle group). The contraction of the cerebral artery was recorded on a recorder (Yokogawa) from an isometric force transducer (Nihon Kohden) connected to the holder, to which the ring was fixed, through a strain-pressure amplifier (Nihon Kohden). […]

For `CCn1c(=O)c2c(nc(/C=C/c3ccc(OC)c(OC)c3)n2C)n(CC)c1=O` [Compound 2], the “suppression of the adenosine-induced relaxation of the cerebral artery” value is “dose-dependently and significantly suppressed”.
